From the supplement of paper PMC10307832

Columns and labels:
Experiment in all cases: relative viability (nuclei count vs DMSO), 5 days (fraction); higher = more cells survive
A-427 = system: A-427
Method in brief: (§1)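 Dosing by pin tool came one day after lung cancer cell lines were seeded in 1536-well plates, using either one drug or a fixed anchor-drug dose plus five library-drug doses (not always all listed) in √10 steps. After 5 days, nuclei were counted on 4× images. Relative viability is treated-well nuclei count divided by vehicle-well nuclei count, and values are medians of duplicate plates.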

COR-L 105 = system: COR-L 105
Method in brief: as §1

ChaGo-K-1 = system: ChaGo-K-1
Method in brief: as §1

EKVX = system: EKVX
Method in brief: as §1

EMC-BAC-2 = system: EMC-BAC-2
Method in brief: as §1

H3255 = system: H3255
Method in brief: as §1

HCC-366 = system: HCC-366
Method in brief: as §1

LOU-NH91 = system: LOU-NH91
Method in brief: as §1

NCI-H1563 = system: NCI-H1563
Method in brief: as §1

NCI-H1666 = system: NCI-H1666
Method in brief: as §1

NCI-H1734 = system: NCI-H1734
Method in brief: as §1

NCI-H1755 = system: NCI-H1755
Method in brief: as §1

NCI-H1975 = system: NCI-H1975
Method in brief: as §1

NCI-H23 = system: NCI-H23
Method in brief: as §1

NCI-H441 = system: NCI-H441
Method in brief: as §1

NCI-H520 = system: NCI-H520
Method in brief: as §1

NCI-H596 = system: NCI-H596
Method in brief: as §1

PC-3 [JPC-3] = system: PC-3 [JPC-3]
Method in brief: as §1

Structure (SMILES): O=c1cc(-c2cccc3c2Sc2ccccc2S3)oc(N2CCOCC2)c1 + CC(C)C[C@H](NC(=O)[C@H](Cc1ccccc1)NC(=O)c1cnccn1)B(O)O [Bortezomib] (partner 0.002 µM)
- relative viability (A-427; first compound 0.08 µM): 1.09
- relative viability (A-427; first compound 0.253 µM): 0.977
- relative viability (A-427; first compound 0.8 µM): 0.999
- relative viability (A-427; first compound 2.53 µM): 0.931
- relative viability (A-427; first compound 8 µM): 1.03
- relative viability (COR-L 105; first compound 0.08 µM): 0.669
- relative viability (COR-L 105; first compound 0.253 µM): 0.715
- relative viability (COR-L 105; first compound 0.8 µM): 0.741
- relative viability (COR-L 105; first compound 2.53 µM): 0.795
- relative viability (COR-L 105; first compound 8 µM): 0.733
- relative viability (ChaGo-K-1; first compound 0.08 µM): 0.915
- relative viability (ChaGo-K-1; first compound 0.253 µM): 1.02
- relative viability (ChaGo-K-1; first compound 0.8 µM): 1.28
- relative viability (ChaGo-K-1; first compound 8 µM): 1.29
- relative viability (EKVX; first compound 0.08 µM): 0.977
- relative viability (EKVX; first compound 0.253 µM): 1.11
- relative viability (EKVX; first compound 0.8 µM): 1.1
- relative viability (EKVX; first compound 2.53 µM): 1.06
- relative viability (EKVX; first compound 8 µM): 1.1
- relative viability (EMC-BAC-2; first compound 0.08 µM): 1.03
- relative viability (EMC-BAC-2; first compound 0.253 µM): 1.18
- relative viability (EMC-BAC-2; first compound 0.8 µM): 1.1
- relative viability (EMC-BAC-2; first compound 2.53 µM): 1.03
- relative viability (EMC-BAC-2; first compound 8 µM): 1.1
- relative viability (H3255; first compound 0.08 µM): 0.837
- relative viability (H3255; first compound 0.253 µM): 0.835
- relative viability (H3255; first compound 0.8 µM): 0.837
- relative viability (H3255; first compound 2.53 µM): 0.646
- relative viability (H3255; first compound 8 µM): 1.07
- relative viability (HCC-366; first compound 0.08 µM): 1.09
- relative viability (HCC-366; first compound 0.253 µM): 1.65
- relative viability (HCC-366; first compound 0.8 µM): 1.12
- relative viability (HCC-366; first compound 2.53 µM): 1.03
- relative viability (HCC-366; first compound 8 µM): 1.28
- relative viability (LOU-NH91; first compound 0.08 µM): 0.481
- relative viability (LOU-NH91; first compound 0.253 µM): 0.514
- relative viability (LOU-NH91; first compound 0.8 µM): 0.546
- relative viability (LOU-NH91; first compound 2.53 µM): 0.489
- relative viability (LOU-NH91; first compound 8 µM): 0.502
- relative viability (NCI-H1563; first compound 0.08 µM): 0.773
- relative viability (NCI-H1563; first compound 0.253 µM): 0.857
- relative viability (NCI-H1563; first compound 0.8 µM): 0.767
- relative viability (NCI-H1563; first compound 2.53 µM): 0.92
- relative viability (NCI-H1563; first compound 8 µM): 0.83
- relative viability (NCI-H1666; first compound 0.08 µM): 0.666
- relative viability (NCI-H1666; first compound 0.253 µM): 0.887
- relative viability (NCI-H1666; first compound 0.8 µM): 0.559
- relative viability (NCI-H1666; first compound 2.53 µM): 0.793
- relative viability (NCI-H1666; first compound 8 µM): 0.759
- relative viability (NCI-H1734; first compound 0.08 µM): 0.865
- relative viability (NCI-H1734; first compound 0.253 µM): 1.06
- relative viability (NCI-H1734; first compound 0.8 µM): 1.05
- relative viability (NCI-H1734; first compound 2.53 µM): 0.844
- relative viability (NCI-H1734; first compound 8 µM): 1.18
- relative viability (NCI-H1755; first compound 0.08 µM): 0.973
- relative viability (NCI-H1755; first compound 0.253 µM): 1.09
- relative viability (NCI-H1755; first compound 0.8 µM): 1.01
- relative viability (NCI-H1755; first compound 2.53 µM): 1.01
- relative viability (NCI-H1755; first compound 8 µM): 0.941
- relative viability (NCI-H1975; first compound 0.08 µM): 0.425
- relative viability (NCI-H1975; first compound 0.253 µM): 0.419
- relative viability (NCI-H1975; first compound 0.8 µM): 0.319
- relative viability (NCI-H1975; first compound 2.53 µM): 0.367
- relative viability (NCI-H1975; first compound 8 µM): 0.384
- relative viability (NCI-H23; first compound 0.08 µM): 0.948
- relative viability (NCI-H23; first compound 0.253 µM): 1.16
- relative viability (NCI-H23; first compound 0.8 µM): 1.25
- relative viability (NCI-H23; first compound 2.53 µM): 0.914
- relative viability (NCI-H23; first compound 8 µM): 1.09
- relative viability (NCI-H441; first compound 0.08 µM): 0.488
- relative viability (NCI-H441; first compound 0.253 µM): 1.25
- relative viability (NCI-H441; first compound 0.8 µM): 0.98
- relative viability (NCI-H441; first compound 2.53 µM): 0.45
- relative viability (NCI-H441; first compound 8 µM): 0.594
- relative viability (NCI-H520; first compound 0.08 µM): 0.679
- relative viability (NCI-H520; first compound 0.253 µM): 0.619
- relative viability (NCI-H520; first compound 0.8 µM): 0.732
- relative viability (NCI-H520; first compound 2.53 µM): 0.507
- relative viability (NCI-H520; first compound 8 µM): 0.604
- relative viability (NCI-H596; first compound 0.08 µM): 0.985
- relative viability (NCI-H596; first compound 0.253 µM): 1.18
- relative viability (NCI-H596; first compound 0.8 µM): 0.959
- relative viability (NCI-H596; first compound 2.53 µM): 0.745
- relative viability (NCI-H596; first compound 8 µM): 1.14
- relative viability (PC-3 [JPC-3]; first compound 0.08 µM): 0.875
- relative viability (PC-3 [JPC-3]; first compound 0.253 µM): 0.801
- relative viability (PC-3 [JPC-3]; first compound 0.8 µM): 0.886
- relative viability (PC-3 [JPC-3]; first compound 2.53 µM): 0.818
- relative viability (PC-3 [JPC-3]; first compound 8 µM): 1.12
